Tested on: ApoE mouse
Test: PET imaging of [^18F]NP-59 in a control BL6 mouse and an ApoE mouse
Assay type: in vivo
Experimental: [^18F]NP-59 was injected into a control BL6 mouse and an ApoE mouse of similar weight. Equivalent activities were injected into each mouse, and PET images taken approximately 60 minutes after injection are shown in FIG. 1. The images are PET maximal intensity projection images in the oblique coronal plane to obtain relevant anatomic structures. In the upper right-hand corner of each image are axial images through the carotid artery.

## CC(C)CCC[C@@H](C)[C@H]1CCC2C3C[C@@H](C[18F])C4=C(CC[C@H](O)C4)C3CC[C@@]21C (stereo partly drawn) [[^18F]NP-59]
ApoE mouse (atherosclerotic disease) vs control BL6 mouse, equivalent activities injected, PET approximately 60 minutes after injection
  differential uptake between the mice (PET): higher uptake in the ApoE mouse
ApoE mouse vs BL6 mouse of similar weight, identical amounts of tracer injected
  background uptake (PET): higher background uptake
BL6 and ApoE mice, PET approximately 60 minutes after injection
  organs showing uptake of the compound (PET images): uptake of the compound in the liver, adrenal glands, and liver

Source: patent US20210355154A1, “Halogenated Cholesterol Analogues and Methods of Making and Using Same” (THE REGENTS OF THE UNIVERSITY OF MICHIGAN, priority 2018, published 2021)
